Measurements published in article PMC12406685, “Thiazole substitution of a labile amide bond—a new option toward antiplasmodial pantothenamide-mimics” (Antimicrobial Agents and Chemotherapy, 2025).

Tested on: PfPanK
Experiment: [14C]pantothenate phosphorylation assay in P. falciparum lysates (Somogyi reagent)
Format: biochemical
Details: PfPanK versus HsPanK3 selectivity
Procedure: Parasite lysates were prepared from saponin-isolated mature trophozoite-stage parasites as described by Saliba et al. ([14]), with modifications. Briefly, a culture with predominantly trophozoite stage parasites was thoroughly mixed with saponin (0.05% [wt/vol] final concentration) and centrifuged at 2,000 × g for 8 min at 4°C. The pelleted parasites were then transferred to a 1.5 mL tube and washed three times (16,000 × g, 1 min each time) with cold malaria saline (125 mM NaCl, 5 mM KCl, 25 mM HEPES, 20 mM glucose, 1 mM MgCl2, pH 7.1). Subsequently, washed saponin-isolated parasites were suspended in 1 mL of 10 mM Tris/Cl, pH 7.4, followed by trituration (10 times) through a SafetyGlide injection needle (25-gauge). The lysates were then centrifuged at 16,000 × g for 30 min at 4°C, and the supernatant was transferred to a new tube. The concentration of the lysates was then determined using the Bradford reagent.
Phosphorylation of [^14C]pantothenate was determined using a combination of zinc sulphate (ZnSO4) and barium hydroxide (Ba(OH)2) (Somogyi reagent) as previously described ([78]). In the 125 min time course, each reaction (650 µL) contained a final concentration of 50 mM Tris-Cl (pH 7.4), 5 mM ATP, 5 mM MgCl2, 2 µM (0.1 µCi/mL) [^14C]pantothenate, and 60 µg of total parasite lysate. The compounds were added at their 10× antiplasmodial IC50 values or at various concentrations to generate dose–response curves. Mixtures were incubated at 37°C throughout the experiment, and reactions were initiated by the addition of the lysates. A reaction with identical components to the test reactions but lacking the parasite lysate was prepared to serve as a no-phosphorylation negative control, and a reaction with DMSO vehicle control (0.2% vol/vol) served as a positive control. At pre-determined time points, 50 µL of the reaction mixture was transferred in triplicate to wells of a 96-well filter plate with 0.2 µm hydrophilic polyvinylidene fluoride (PVDF) membrane filter (Corning), which had been pre-loaded with 50 µL of 150 mM Ba(OH)2. The reaction mixtures were thoroughly mixed with the Ba(OH)2 in the wells to precipitate the enzyme and terminate the phosphorylation reaction. After all reactions had been terminated, phosphorylated compounds in each well were precipitated by the addition of 50 µL of 150 mM ZnSO4 to generate the Somogyi reagent. The plate was then washed twice with deionized H2O and once with 95% (vol/vol) ethanol using a vacuum manifold to remove the non-phosphorylated [^14C]pantothenate and was subsequently dried overnight at 37°C in a non-humidified incubator. The following day, 30 µL of Microscint-O (PerkinElmer) was added to each well, and the plate was sealed on the top and bottom with TopSeal-A Plus sealing film (PerkinElmer). A Packard Microplate Scintillation and Luminescence Counter was used to measure the radioactivity in each well immediately after the plate had been sealed. To determine the total radioactivity in each phosphorylation assay, 50 µL of each reaction mixture was added to the wells of an OptiPlate-96 microplate (PerkinElmer) in triplicate and was then thoroughly mixed with 150 µL of Microscint-40 (PerkinElmer), and the radioactivity was measured in the same manner. Phosphorylation of [^14C]pantothenate, calculated as a percentage of the radioactivity measured in the test wells relative to the total radioactivity in the phosphorylation assay, was then plotted against the reaction time. Each data set was analyzed by linear regression, from which the phosphorylation rate of each reaction was then determined and expressed as a percentage of the phosphorylation rate of the DMSO-positive control reaction.

In the case of `CC(C)(CO)[C@@H](O)C(=O)NCc1csc(-c2ccccc2)n1` [Compound 2e], the “Fold by which IC50 at inhibiting PfPanK-mediated pantothenate phosphorylation is lower than Km observed for HsPanK3” value is reported as 120 fold.
